Reference: patent US20080004263A1, “Ligands of Follicle Stimulating Hormone Receptor and Methods of Use Thereof” (priority 2004, published 2008)

Molecular target: T1, FSH receptor (Homo sapiens, UniProt P23945)
T1 construct: expressed in transfected cells; host or cells: AV12 cells (stably transfected)
T1 sequence (P23945 18-695): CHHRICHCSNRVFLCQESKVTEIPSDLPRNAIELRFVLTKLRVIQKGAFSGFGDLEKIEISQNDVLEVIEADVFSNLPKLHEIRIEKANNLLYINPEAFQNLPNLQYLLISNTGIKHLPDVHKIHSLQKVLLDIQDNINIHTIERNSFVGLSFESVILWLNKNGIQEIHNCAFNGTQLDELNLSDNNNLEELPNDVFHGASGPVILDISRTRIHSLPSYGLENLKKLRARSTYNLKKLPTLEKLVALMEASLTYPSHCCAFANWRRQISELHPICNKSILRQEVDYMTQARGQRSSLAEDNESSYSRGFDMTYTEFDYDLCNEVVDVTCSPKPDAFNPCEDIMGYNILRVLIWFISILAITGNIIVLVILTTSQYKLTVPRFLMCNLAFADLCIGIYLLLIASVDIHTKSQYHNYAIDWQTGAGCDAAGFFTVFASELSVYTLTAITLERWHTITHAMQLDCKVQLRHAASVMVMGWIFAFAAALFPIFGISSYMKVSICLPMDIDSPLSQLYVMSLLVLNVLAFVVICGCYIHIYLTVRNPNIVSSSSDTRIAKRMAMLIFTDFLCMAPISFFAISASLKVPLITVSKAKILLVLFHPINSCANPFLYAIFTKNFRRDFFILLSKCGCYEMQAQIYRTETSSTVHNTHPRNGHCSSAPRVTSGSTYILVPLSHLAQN
Assay: cAMP Whole Cell assay (AlphaScreen cAMP detection) in AV12 cells stably transfected with FSH receptor
Type: cell-based
Conditions: AV12 cells expressing FSH receptor; average of two (2) trials
Experimental: Compounds of the invention were tested for their ability to activate an FSH receptor protein using an AlphaScreen cAMP detection kit (Perkin Elmer; Cat. No. 6760600R).
AV12 cells stably transfected with an expression vector containing an FSH construct and cultured under conditions permissive for cell surface expression of the encoded FSH receptor were harvested from flasks via non-enzymatic means. The cells were washed in PBS and resuspended in Stimulation Buffer. Live cells were counted using a hemacytometer and Trypan blue exclusion, and the cell concentration was adjusted to 2×10^5 cells/ml. A cAMP standard curve in buffer was prepared with a high final concentration of 1 μM, and serially diluted 1:5 in buffer (10 μL/well). Candidate compounds identified as per above (if frozen, thawed at room temperature) were added to their respective wells (in a 384-well plate) at increasing concentrations (5 μL/well; 10 μM final top assay concentration). To these wells, 2,000 cells in 10 μl of Buffer were added and the mixture as well as 5 μL of cAMP Acceptor Beads in Stimulation Buffer. Following a 30 minute incubation, 5 μL of Donor Bead/Biotinylated cAMP was added to each well, followed by incubation at RT for 2 hours. Plates were read in a Perkin Elmer AlphaQuest™ plate reader per manufacturer instructions.

Compound: Cc1onc(-c2cccc(-c3ccc(-c4nnn[nH]4)cc3)c2)c1-c1csc(C2CCN(C(=O)Cc3cccs3)CC2)n1 [Example 38, 1-[4-(4-{5-Methyl-3-[4′-(1H-tetrazol-5-yl)-biphenyl-3-yl]-isoxazol-4-yl}-thiazol-2-yl)-piperidin-1-yl]-2-thiophen-2-yl-ethanone]
- EC50: 1100 nM
